Laboratory results taken from patent USRE40086E1, “Method for treating bacterial infection with novel 7-substituted-9-substituted amino 6-demethyl-6-deoxytetracyclines” (Wyeth Holdings Corporation, priority 1991, dated 2008).

What was measured:
E. coli UBMS 89-1 (tetM) = experiment: MIC, agar dilution; format: cell-based; conditions: E. coli UBMS 89-1 TetM; Table IA; unit assumed
[1] = test system: Ps. acruginosa ATCC 27853; experiment: MIC, agar dilution (Table IA); format: cell-based; conditions: unit assumed
S. aureus NEMC 8769/89-4 = experiment: MIC, agar dilution (Table IA); format: cell-based; conditions: unit assumed
S. aureus ROSE (MP) = experiment: MIC, agar dilution (Table IA); format: cell-based; conditions: unit assumed
E. coli J2175 = experiment: MIC, agar dilution (Table IA); format: cell-based; conditions: unit assumed
E. coli BAJ9003 = experiment: MIC, agar dilution (Table IA); format: cell-based; conditions: unit assumed
[2] = test system: S. aureus UBMS 88-5 (tetM); experiment: MIC, agar dilution; format: cell-based; conditions: S. aureus UBMS 88-5 TetM; Table IA; unit assumed
[3] = test system: Wild Type S30 extract, E. coli strain MRE600 (tetracycline sensitive); experiment: E. coli in vitro transcription and protein translation, 35S-methionine incorporation (Table VIII)
[4] = test system: X. maltophilia NEMC 87210; experiment: MIC, agar dilution (Table IA); format: cell-based; conditions: unit assumed
E. coli UBMS 88-1 (tetB) = experiment: MIC, agar dilution; format: cell-based; conditions: E. coli UBMS 88-1 TetB; Table IA; unit assumed
[5] = test system: S. aureus UBMS 90-2 (tetM); experiment: MIC, agar dilution; format: cell-based; conditions: S. aureus UBMS 90-2 TetM; Table IA; unit assumed
E. coli J3272 TetC = experiment: MIC, agar dilution (Table IA); format: cell-based; conditions: unit assumed
[6] = test system: S. aureus ATCC 29213 (Sensitive); experiment: MIC, agar dilution; format: cell-based; conditions: S. aureus ATCC 29213; Table IA; unit assumed
[7] = test system: S. aureus UBMS 90-1 (tetM); experiment: MIC, agar dilution; format: cell-based; conditions: S. aureus UBMS 90-1 TetM; Table IA; unit assumed
E. coli ATCC 25922 = experiment: MIC, agar dilution; format: cell-based; conditions: E. coli ATCC 25922; Table IA; unit assumed
[8] = test system: S. aureus UBMS 88-4 (Sensitive); experiment: MIC, agar dilution; format: cell-based; conditions: S. aureus UBMS 88-4; Table IA; unit assumed
E. coli #311 (MP) = experiment: MIC, agar dilution (Table IA); format: cell-based; conditions: unit assumed
E. coli MC4100 TetB = experiment: MIC, agar dilution (Table IA); format: cell-based; conditions: unit assumed
[9] = test system: S. aureus UBMS 90-3 (Sensitive); experiment: MIC, agar dilution; format: cell-based; conditions: S. aureus UBMS 90-3; Table IA; unit assumed
S. mariescens FDOR 8733 = experiment: MIC, agar dilution (Table IA); format: cell-based; conditions: unit assumed
[10] = test system: S. aureus IVES 2943 (meth. resistant); experiment: MIC, agar dilution; format: cell-based; conditions: S. aureus IVES 2943; Table IA; unit assumed
E. coli J3272 TetD = experiment: MIC, agar dilution (Table IA); format: cell-based; conditions: unit assumed
[11] = test system: S. haemolyticus AVAH 88-3; experiment: MIC, agar dilution; format: cell-based; conditions: S. hemolyticus AVHAH 88-3; Table IA; unit assumed
E. faecalis ATCC 29212 = experiment: MIC, agar dilution; format: cell-based; conditions: E. faecalis ATCC 29212; Table IA; unit assumed
[12] = test system: E. coli UBMS 89-2 (Sensitive); experiment: MIC, agar dilution; format: cell-based; conditions: E. coli UBMS 89-2 Tet Sens.; Table IA; unit assumed
[13] = test system: S. aureus UBMS 88-7 (tetK); experiment: MIC, agar dilution; format: cell-based; conditions: S. aureus UBMS 88-7 TetK; Table IA; unit assumed
E. coli PRP1 TetA = experiment: MIC, agar dilution (Table IA); format: cell-based; conditions: unit assumed
[14] = test system: S. aureus Smith (Sensitive); experiment: MIC, agar dilution; format: cell-based; conditions: S. aureus SMITH (MP); Table IA; unit assumed
E. faecalis 12201 = experiment: MIC, agar dilution; format: cell-based; conditions: Enterococcus 12201; Table IA; unit assumed
[15] = test system: S. aureus IVES 1983 (meth. resistant); experiment: MIC, agar dilution; format: cell-based; conditions: S. aureus IVES 1983; Table IA; unit assumed
[16] = test system: TetM S30 extract, derivative of E. coli MRE600 containing the tetM determinant; experiment: E. coli in vitro transcription and protein translation, 35S-methionine incorporation (Table VIII)
E. coli UBMS 90-5 = experiment: MIC, agar dilution (Table IA); format: cell-based; conditions: unit assumed
E. coli J3272 Tet sens. = experiment: MIC, agar dilution (Table IA); format: cell-based; conditions: unit assumed
E. coli UBMS 90-4 (tetM) = experiment: MIC, agar dilution; format: cell-based; conditions: E. coli UBMS 90-4 TetM; Table IA; unit assumed

## CNCC(=O)Nc1cc(N(C)C)c2c(c1O)C(=O)C1=C(O)[C@]3(O)C(=O)C(C(N)=O)=C(O)[C@@H](N(C)C)C3CC1C2.Cl.Cl (stereo partly drawn) [MM, [4S-(4alpha,12aalpha)]-4,7-Bis(dimethylamino)-1,4,4a,5,5a,6,11,12a-octahydro-3,10,12,12a-tetrahydroxy-9-[[(methylamino)acetyl]amino]-1,11-dioxo-2-naphthacenecarboxamide dihydrochloride]
E. coli UBMS 89-1 (tetM)
  Antibacterial activity (MIC): 1 µg/mL
[1]
  Antibacterial activity (MIC): 16 µg/mL
S. aureus NEMC 8769/89-4
  Antibacterial activity (MIC): 0.5 µg/mL
S. aureus ROSE (MP)
  Antibacterial activity (MIC): 32 µg/mL
E. coli J2175
  Antibacterial activity (MIC): 1 µg/mL
E. coli BAJ9003
  Antibacterial activity (MIC): 0.25 µg/mL
[2]
  Antibacterial activity (MIC): 0.5 µg/mL
[3]; 0.06 mg/ml
  % INHIBITION Wild Type S30: 95%
[3]; 0.2 mg/ml
  % INHIBITION Wild Type S30: 98%
[3]; 1.0 mg/ml
  % INHIBITION Wild Type S30: 99%
[4]
  Antibacterial activity (MIC): 8 µg/mL
E. coli UBMS 88-1 (tetB)
  Antibacterial activity (MIC): 1 µg/mL
[5]
  Antibacterial activity (MIC): 0.5 µg/mL
E. coli J3272 TetC
  Antibacterial activity (MIC): 8 µg/mL
[6]
  Antibacterial activity (MIC): 1 µg/mL
[7]
  Antibacterial activity (MIC): 1 µg/mL
E. coli ATCC 25922
  Antibacterial activity (MIC): 1 µg/mL
[8]
  Antibacterial activity (MIC): 0.5 µg/mL
E. coli #311 (MP)
  Antibacterial activity (MIC): 1 µg/mL
E. coli MC4100 TetB
  Antibacterial activity (MIC): 1 µg/mL
[9]
  Antibacterial activity (MIC): 0.5 µg/mL
S. mariescens FDOR 8733
  Antibacterial activity (MIC): 16 µg/mL
[10]
  Antibacterial activity (MIC): 32 µg/mL
E. coli J3272 TetD
  Antibacterial activity (MIC): 0.05 µg/mL
[11]
  Antibacterial activity (MIC): 1 µg/mL
E. faecalis ATCC 29212
  Antibacterial activity (MIC): 0.25 µg/mL
[12]
  Antibacterial activity (MIC): 1 µg/mL
[13]
  Antibacterial activity (MIC): 16 µg/mL
E. coli PRP1 TetA
  Antibacterial activity (MIC): 16 µg/mL
[14]
  Antibacterial activity (MIC): 0.5 µg/mL
E. faecalis 12201
  Antibacterial activity (MIC): 0.25 µg/mL
[15]
  Antibacterial activity (MIC): 16 µg/mL
[16]; 0.06 mg/ml
  % INHIBITION TetM S30: 92%
[16]; 0.2 mg/ml
  % INHIBITION TetM S30: 97%
[16]; 1.0 mg/ml
  % INHIBITION TetM S30: 99%
E. coli UBMS 90-5
  Antibacterial activity (MIC): 1 µg/mL
E. coli J3272 Tet sens.
  Antibacterial activity (MIC): 1 µg/mL

## CN(C)c1cc(NC(=O)CNC2CCC2)c(O)c2c1CC1CC3C(N(C)C)C(O)=C(C(N)=O)C(=O)C3(O)C(O)=C1C2=O (stereo not drawn) [MMM, [4S-(4alpha,12aalpha)]-g-[[(Cyclobutylamino)acetyl]amino]-4,7-Bis(dimethylamino)-1,4,4a,5,5a,6,11,12a-octahydro-3,10,12,12a-tetrahydroxy-1,11-dioxo-2-naphthacenecarboxamide]
E. coli UBMS 89-1 (tetM)
  Antibacterial activity (MIC): 0.25 µg/mL
[1]
  Antibacterial activity (MIC): 32 µg/mL
S. aureus NEMC 8769/89-4
  Antibacterial activity (MIC): 0.5 µg/mL
S. aureus ROSE (MP)
  Antibacterial activity (MIC): 8 µg/mL
E. coli J2175
  Antibacterial activity (MIC): 0.25 µg/mL
E. coli UBMS 90-4 (tetM)
  Antibacterial activity (MIC): 0.25 µg/mL
E. coli BAJ9003
  Antibacterial activity (MIC): 0.03 µg/mL
[2]
  Antibacterial activity (MIC): 0.25 µg/mL
[4]
  Antibacterial activity (MIC): 0.5 µg/mL
E. coli UBMS 88-1 (tetB)
  Antibacterial activity (MIC): 0.5 µg/mL
[5]
  Antibacterial activity (MIC): 0.25 µg/mL
E. coli J3272 TetC
  Antibacterial activity (MIC): 0.5 µg/mL
[6]
  Antibacterial activity (MIC): 0.25 µg/mL
[7]
  Antibacterial activity (MIC): 0.5 µg/mL
E. coli ATCC 25922
  Antibacterial activity (MIC): 0.25 µg/mL
[8]
  Antibacterial activity (MIC): 0.25 µg/mL
E. coli #311 (MP)
  Antibacterial activity (MIC): 0.25 µg/mL
E. coli MC4100 TetB
  Antibacterial activity (MIC): 0.25 µg/mL
[9]
  Antibacterial activity (MIC): 0.12 µg/mL
S. mariescens FDOR 8733
  Antibacterial activity (MIC): 8 µg/mL
[10]
  Antibacterial activity (MIC): 4 µg/mL
E. coli J3272 TetD
  Antibacterial activity (MIC): 0.12 µg/mL
[11]
  Antibacterial activity (MIC): 0.24 µg/mL
E. faecalis ATCC 29212
  Antibacterial activity (MIC): 0.25 µg/mL
[12]
  Antibacterial activity (MIC): 0.5 µg/mL
[13]
  Antibacterial activity (MIC): 4 µg/mL
E. coli PRP1 TetA
  Antibacterial activity (MIC): 4 µg/mL
[14]
  Antibacterial activity (MIC): 0.25 µg/mL
E. faecalis 12201
  Antibacterial activity (MIC): 0.24 µg/mL
[15]
  Antibacterial activity (MIC): 4 µg/mL
E. coli UBMS 90-5
  Antibacterial activity (MIC): 0.5 µg/mL
E. coli J3272 Tet sens.
  Antibacterial activity (MIC): 0.06 µg/mL
